Results taken from article PMC6383929, “Design, antimicrobial activity and mechanism of action of Arg-rich ultra-short cationic lipopeptides” (PLoS ONE, 2019).
In brackets after ≈: the same amount, converted by molar mass. Where a SMILES comes first, the peptide text is derived from it. The star is where a group is joined. Lauroyl = CCCCCCCCCCCC(=O)*

How the values were obtained:
[1] = RP-HPLC retention time (hydrophobicity); type: physicochemical; conditions: stated to reliably reflect the hydrophobicity in aqueous solution, assessed and provided by GenScript
Method: GenScript (Piscataway, NJ, USA) carried out the custom synthesis of USCLs by using high efficient solid phase peptide synthesis. The fatty acid was conjugated to the N-terminus of the peptide using the same procedure followed to attach protected amino acids to the growing peptide chain for synthesis. The purity (>90%), sequence and molecular weight of USCLs were assessed and provided by GenScript using RP-HPLC and ESI-MS. USCLs were dissolved in sterile water or DMSO at 10 mg/mL, according to manufacturer's indications.

[2] = tested on: S. aureus 11 (MRSA clinical isolate); type: cell-based, Staphylococcus aureus; conditions: 11 ( clinical isolate, 24 h)
Text: (§1) Bacteria used in this study were Escherichia coli ATCC 25922 and O18K1H7, Staphylococcus aureus ATCC 25923 and ATCC 29213, Pseudomonas aeruginosa ATCC 27853, Staphylococcus epidermidis ATCC 12228, Enterococcus faecalis ATCC 29212, Bacillus subtilis DSM 4181, Listeria monocytogenes DSM 20600, Salmonella typhimurium ATCC 14028, Acinetobacter baumannii ATCC 19606 and 17978, Klebsiella pneumoniae ATCC 13883 and 700603, Stenotrophomonas maltophilia ATCC 13637 and Burkholderia cenocepacia J2315. In addition to reference strains, a clinical isolate of E. faecalis vancomycin-resistant (VREF, strain M), and three clinical isolates of S. aureus methicillin-resistant (MRSA, strains E, G and 11), kindly provided by Dr. Lucilla Dolzani, were used. All MRSA strains are resistant to GEN, IPM, OXA, PEN, CIP and CEF; the S. aureus E strain is also resistant to CLI and ERY. VREF strain is resistant to AMK, ATM, GEN, NET, PEN, TEC, TET, TOB and VAN.
(§2) For the assays, overnight bacterial cultures were diluted 1:30 in fresh Mueller-Hinton Broth (MHB, Difco) and incubated at 37°C with shaking for approximately 2h.
(§3) The antimicrobial activity of USCLs was determined by the Minimum Inhibitory Concentration (MIC) assay, according to the guidelines of CLSI (Clinical & Laboratory Standards Institute) and described in [30, 31]. Briefly, the assays were performed in 96-well microplates in appropriate broth (MHB or SAB). […] For bacteria, a mid-log phase bacterial suspension at 2.5 × 10^5 CFU/mL in MHB was used, and the microplates incubated at 37°C for 24h. The fungal suspension in SAB broth was used at a final concentration of 5 × 10^4 cells/mL. Microplates were then incubated at 30°C for 48h. The MIC value was taken as the lowest concentration of USCLs resulting in the complete inhibition of visible bacterial or fungal growth after appropriate incubation time. Results derive from at least three independent experiments carried out in duplicate.

S. aureus ATCC 25923 = type: cell-based, Staphylococcus aureus; conditions: ATCC 25923, 24 h
Text: as §1, §2, §3

S. aureus ATCC 29213 = type: cell-based, Staphylococcus aureus; conditions: ATCC 29213, 24 h
Text: as §1, §2, §3

[3] = tested on: S. aureus E (MRSA clinical isolate); type: cell-based, Staphylococcus aureus; conditions: E ( clinical isolate, 24 h)
Text: as §1, §2, §3

[4] = tested on: S. aureus G (MRSA clinical isolate); type: cell-based, Staphylococcus aureus; conditions: G ( clinical isolate, 24 h)
Text: as §1, §2, §3

E. coli O18K1H7 = type: cell-based, Escherichia coli; conditions: O18K1H7, 24 h
Text: as §1, §2, §3

E. faecalis ATCC 29212 = type: cell-based, Enterococcus faecalis; conditions: ATCC 29212, 24 h
Text: as §1, §2, §3

[5] = tested on: L. monocytogenes DSM 20600; type: cell-based, Listeria monocytogenes; conditions: DSM 20600, 24 h
Text: as §1, §2, §3

K. pneumoniae ATCC 13883 = type: cell-based, Klebsiella pneumoniae; conditions: ATCC 13883, 24 h
Text: as §1, §2, §3

[6] = tested on: K. pneumoniae ATCC 700603; type: cell-based, Klebsiella pneumoniae; conditions: ATCC 700603, 24 h
Text: as §1, §2, §3

A. baumannii ATCC 17978 = type: cell-based, Acinetobacter baumannii; conditions: ATCC 17978, 24 h
Text: as §1, §2, §3

A. baumannii ATCC 19606 = type: cell-based, Acinetobacter baumannii; conditions: ATCC 19606, 24 h
Text: as §1, §2, §3

[7] = tested on: S. maltophilia ATCC 13637; type: cell-based, Stenotrophomonas maltophilia; conditions: ATCC 13637, 48 h
Text: as §1, §2
as §3, with “For bacteria, a mid-log phase bacterial suspension at 2.5 × 10^5 CFU/mL in MHB was used, and the microplates incubated at 37°C for 24h.” left out

B. cenocepacia J2315 = type: cell-based, Burkholderia cenocepacia; conditions: 48 h
Text: as §1, §2
as §3, with “For bacteria, a mid-log phase bacterial suspension at 2.5 × 10^5 CFU/mL in MHB was used, and the microplates incubated at 37°C for 24h.” left out

C. albicans ATCC 90029 = type: cell-based, Candida albicans; conditions: ATCC 90029, 48 h
Method: (§4) Fungal strains used were Candida albicans ATCC 90029 and SC5314. Fungi were grown on Sabouraud dextrose (SAB, Difco) agar plates at 30°C for 48h. The initial fungal inoculum was prepared by picking and suspending five colonies in 5 mL of sterile PBS.
as §3

C. albicans SC 5314 = type: cell-based, Candida albicans; conditions: SC 5314, 48 h
Method: as §4, §3

E. coli ATCC 25922 = type: cell-based, Escherichia coli; conditions: ATCC 25922, 24 h
Text: as §1, §2, §3

P. aeruginosa ATCC 27853 = type: cell-based, Pseudomonas aeruginosa; conditions: ATCC 27853, 24 h
Text: as §1, §2, §3

[8] = tested on: E. faecalis M (VREF clinical isolate); type: cell-based, Enterococcus faecalis; conditions: M (VREF clinical isolate, 24 h)
Text: as §1, §2, §3

B. subtilis DSM 4181 = type: cell-based, Bacillus subtilis; conditions: DSM 4181, 24 h
Text: as §1, §2, §3

[9] = tested on: S. typhimurium ATCC 14028; type: cell-based, Salmonella typhimurium; conditions: ATCC 14028, 24 h
Text: as §1, §2, §3

[10] = tested on: S. epidermidis ATCC 12228; type: cell-based, Staphylococcus epidermidis; conditions: ATCC 12228, 24 h
Text: as §1, §2
The antimicrobial activity of USCLs was determined by the Minimum Inhibitory Concentration (MIC) assay, according to the guidelines of CLSI (Clinical & Laboratory Standards Institute) and described in [30, 31]. […]

Retention time [1] [min]	MIC [2] [µg/mL]	MIC (S. aureus ATCC 25923) [µg/mL]	MIC (S. aureus ATCC 29213) [µg/mL]	MIC [3] [µg/mL]	MIC [4] [µg/mL]	MIC (E. coli O18K1H7) [µg/mL]	MIC (E. faecalis ATCC 29212) [µg/mL]	MIC [5] [µg/mL]	MIC (K. pneumoniae ATCC 13883) [µg/mL]	MIC [6] [µg/mL]	MIC (A. baumannii ATCC 17978) [µg/mL]	MIC (A. baumannii ATCC 19606) [µg/mL]	MIC [7] [µg/mL]	MIC (B. cenocepacia J2315) [µg/mL]	MIC (C. albicans ATCC 90029) [µg/mL]	MIC (C. albicans SC 5314) [µg/mL]	MIC [8] [µg/mL]	MIC (B. subtilis DSM 4181) [µg/mL]	MIC [9] [µg/mL]	Compound	also measured
22.609	6.25 (≈ 7.4 µM)	3.125 (≈ 3.7 µM)	3.125 (≈ 3.7 µM)	3.125 (≈ 3.7 µM)	6.25 (≈ 7.4 µM)	12.5 (≈ 14.8 µM)	6.25 (≈ 7.4 µM)	3.125 (≈ 3.7 µM)	50 (≈ 59.2 µM)	25 (≈ 29.6 µM)	12.5 (≈ 14.8 µM)	12.5 (≈ 14.8 µM)	6.25 (≈ 7.4 µM)	12.5 (≈ 14.8 µM)	3.125 (≈ 3.7 µM)	12.5 (≈ 14.8 µM)	–	–	–	CCCCCCCCCCCC(=O)N[C@@H](CCCNC(=N)N)C(=O)N[C@@H](CCCNC(=N)N)C(=O)N[C@@H](Cc1ccccc1)C(=O)N[C@@H](Cc1c[nH]c2ccccc12)C(N)=O [Lau-RRFW, Lau-RRFW-NH2] (Lauroyl-RRFW-NH2)	–
20.957	–	3.125 (≈ 3.85 µM)	3.125 (≈ 3.85 µM)	3.125 (≈ 3.85 µM)	3.125 (≈ 3.85 µM)	12.5 (≈ 15.4 µM)	6.25 (≈ 7.71 µM)	3.125 (≈ 3.85 µM)	–	–	25 (≈ 30.8 µM)	12.5 (≈ 15.4 µM)	12.5 (≈ 15.4 µM)	6.25 (≈ 7.71 µM)	3.125 (≈ 3.85 µM)	12.5 (≈ 15.4 µM)	6.25 (≈ 7.71 µM)	3.125 (≈ 3.85 µM)	25 (≈ 30.8 µM)	CCCCCCCCCCCC(=O)N[C@@H](CCCNC(=N)N)C(=O)N[C@@H](CCCNC(=N)N)C(=O)N[C@H](C(=O)N[C@@H](Cc1c[nH]c2ccccc12)C(N)=O)[C@@H](C)CC [Lau-RRIW, Lau-RRIW-NH2] (Lauroyl-RRIW-NH2)	MIC (E. coli ATCC 25922): 12.5 µg/mL (≈ 15.4 µM); MIC (P. aeruginosa ATCC 27853): 12.5 µg/mL (≈ 15.4 µM)
22.087	3.125 (≈ 2.7 µM)	3.125 (≈ 2.7 µM)	–	3.125 (≈ 2.7 µM)	3.125 (≈ 2.7 µM)	25 (≈ 21.6 µM)	6.25 (≈ 5.4 µM)	1.56 (≈ 1.35 µM)	25 (≈ 21.6 µM)	25 (≈ 21.6 µM)	25 (≈ 21.6 µM)	–	12.5 (≈ 10.8 µM)	12.5 (≈ 10.8 µM)	1.56 (≈ 1.35 µM)	100 (≈ 86.4 µM)	6.25 to 12.5	1.56 (≈ 1.35 µM)	25 (≈ 21.6 µM)	CCCCCCCCCCCC(=O)N[C@@H](CCCNC(=N)N)C(=O)N[C@@H](CCCNC(=N)N)C(=O)N[C@@H](Cc1ccccc1)C(=O)N[C@@H](Cc1c[nH]c2ccccc12)C(=O)N[C@@H](CCCNC(=N)N)C(=O)N[C@@H](CCCNC(=N)N)C(N)=O [Lp-F^RR, Lau-RRFWRR-NH2] (Lauroyl-RRFWRR-NH2)	MIC (E. coli ATCC 25922): 12.5 µg/mL (≈ 10.8 µM); MIC (P. aeruginosa ATCC 27853): 12.5 µg/mL (≈ 10.8 µM)
–	–	–	3.125 (≈ 3.85 µM)	3.125 (≈ 3.85 µM)	3.125 (≈ 3.85 µM)	–	–	–	100 (≈ 123 µM)	50 (≈ 61.6 µM)	25 (≈ 30.8 µM)	25 (≈ 30.8 µM)	–	12.5 (≈ 15.4 µM)	–	–	–	–	25 (≈ 30.8 µM)	CCCCCCCCCCCC(=O)N[C@@H](CCCNC(=N)N)C(=O)N[C@H](C(=O)N[C@@H](Cc1c[nH]c2ccccc12)C(=O)N[C@@H](CCCNC(=N)N)C(N)=O)[C@@H](C)CC [Lp-I] (Lauroyl-RIWR-NH2)	MIC [10]: 3.125 µg/mL (≈ 3.85 µM)
12.393	6.25 (≈ 7.54 µM)	6.25 (≈ 7.54 µM)	–	6.25 (≈ 7.54 µM)	6.25 (≈ 7.54 µM)	25 (≈ 30.2 µM)	6.25 (≈ 7.54 µM)	3.125 (≈ 3.77 µM)	>100	100 (≈ 121 µM)	25 (≈ 30.2 µM)	25 (≈ 30.2 µM)	12.5 (≈ 15.1 µM)	25 (≈ 30.2 µM)	3.125 (≈ 3.77 µM)	12.5 (≈ 15.1 µM)	12.5 (≈ 15.1 µM)	3.125 (≈ 3.77 µM)	–	CCCCCCCCCCCC(=O)N[C@@H](CCCNC(=N)N)C(=O)N[C@@H](CCSC)C(=O)N[C@@H](Cc1c[nH]c2ccccc12)C(=O)N[C@@H](CCCNC(=N)N)C(N)=O [Lp-M, Lau-RMWR-NH2] (Lauroyl-RMWR-NH2)	MIC [10]: 3.125 µg/mL (≈ 3.77 µM)
21.651	3.125 (≈ 3.66 µM)	3.125 (≈ 3.66 µM)	–	3.125 (≈ 3.66 µM)	3.125 (≈ 3.66 µM)	25 (≈ 29.3 µM)	6.25 (≈ 7.32 µM)	–	>100	100 (≈ 117 µM)	–	–	12.5 (≈ 14.6 µM)	50 (≈ 58.5 µM)	1.56 (≈ 1.83 µM)	50 (≈ 58.5 µM)	12.5 (≈ 14.6 µM)	1.56 (≈ 1.83 µM)	100 (≈ 117 µM)	CCCCCCCCCCCC(=O)N[C@@H](CCCNC(=N)N)C(=O)N[C@@H](CCCNC(=N)N)C(=O)N[C@@H](Cc1c[nH]c2ccccc12)C(=O)N[C@@H](CCCNC(=N)N)C(N)=O [Lp-R, Lau-RRWR-NH2] (Lauroyl-RRWR-NH2)	MIC (E. coli ATCC 25922): 12.5 µg/mL (≈ 14.6 µM); MIC (P. aeruginosa ATCC 27853): 25 µg/mL (≈ 29.3 µM)
